Source: the METLIN SMRT retention time set (Domingo-Almenara et al. 2019)

Test: gradient 5% acetonitrile 3 min, to 50% in 2 min, to 85% in 15 min, held 3 min, 100 µL/min
Conditions: column: Zorbax Extend-C18 2.1 x 50 mm; eluents: water / acetonitrile, 0.1% formic acid
In short: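 The mobile phases were water and acetonitrile, each with 0.1% formic acid, pumped at 100 μL/min through a Zorbax Extend-C18 column (2.1 × 50 mm, 1.8 μm). Pure standards were injected as mixtures of ~100 molecules and detected by a quadrupole time-of-flight mass spectrometer in positive and negative ionization mode. Retention time came from computationally picked adduct peaks, each inspected by hand.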

SMILES	RP-LC retention time [s]
O=C(NCC1CCN(C(=O)Nc2ccc(F)cc2)CC1)c1ccccn1	674
Cc1nc(OCC(=O)Nc2ccc(F)cc2)c2ccccc2n1	709
COc1ccc(CNC2=NCCNC23CCN(S(=O)(=O)c2ccc(C)cc2)CC3)cc1	732
O=C([C@@H]1C[C@H](Oc2cccnc2)CN1C(=O)c1ccoc1)N1CCCC1	553
O=c1ccc(-c2ccc3c(c2)OCO3)nn1Cc1nc(-c2ccccc2)no1	939
COc1ccc(OCC(=O)N2CCN(c3cc(C)n4c(C)nnc4n3)CC2)cc1	599
CCCCN1N=C(C(=O)N2CCOCC2)S(=O)(=O)c2ccc(Cl)cc21	889
COCCNC(=O)CN1C(=O)C2CCCCN2c2ccc(C(=O)N3CCCC3)cc21 (stereo unspecified)	653
COc1ccc(OC)c(NC(=O)N2CCC3(CC2)NC(=O)c2ccccc2O3)c1	740
COc1ccc(C(O)Cn2ccn3nc(-c4cccs4)cc3c2=O)cc1 (stereo unspecified)	848
CN(C)c1cc(-n2cnc(C(=O)Nc3ccc4c(c3)OCCO4)c2)ncn1	755
O=C(NCC1CCN(Cc2ccccc2)CC1)C(=O)Nc1ccc(F)cc1F	573
O=C(Cc1ccc(F)cc1)N[C@H](Cc1ccccc1)C(=O)NCc1cscn1	741
Cc1ccc(NC(=O)N2CCCC2c2nc(-c3ccccc3)no2)cc1C (stereo unspecified)	1030
CCCn1c(=O)sc2cc(S(=O)(=O)N3CCC(C(=O)Nc4ccc(C)cc4)CC3)ccc21	1010
COc1cc(C(=O)Nc2c(-c3ccc(F)cc3)nc3ccccn23)cc(OC)c1OC	657
O=C(NC1CCN(Cc2ccccc2)CC1)c1ccc2c(=O)n3c(nc2c1)CCCC3	579
CCCNC(=O)C1CCN(c2nccnc2Sc2cccc(C)c2)CC1	946
COc1ccc(NS(=O)(=O)c2ccc(-c3c(C)noc3C)cc2)cc1OC	806
CCOC(=O)N1CCN(C(=O)C2CCCN(c3ccc(-c4ccc(C)c(C)c4)nn3)C2)CC1 (stereo unspecified)	715
CCCNC(=O)N1[C@H]2CC[C@@H]1c1cnc(-c3ccc(F)cc3)nc1C2	829
O=C(NCc1ccccc1)C1CCN(C(=O)c2cc3ccsc3n2Cc2ccc(Cl)cc2)CC1	1060

SMILES	RP-LC retention time [s]
COc1ccccc1CN1C[C@@H]2C(=O)N(CCCN3CCCC3=O)C(=O)[C@@H]2C1	586
Cn1c(=O)c2cc(C(=O)NCc3cc(F)ccc3F)nn2c2ccccc21	869
CN(C)C(=O)c1cc(=O)[nH]c2c(Cl)cccc12	604
CCC(C)NC(=O)NCCC1CCN(S(=O)(=O)c2ccc(C)cc2)CC1 (stereo unspecified)	861
COc1ccccc1CNC(=O)C1CCN(C(=O)C2Sc3ccccc3NC2=O)CC1 (stereo unspecified)	736
Cc1ccc(NS(=O)(=O)c2cc(-c3[nH]ncc3C(=O)N3CCCC3)oc2C)c(C)c1	746
O=C(c1ccnnc1)N1C[C@@H](COCC2CC2)[C@H](c2ccncc2)C1	570
CC1CN=C2C=C(N3CCN(C(=O)Nc4ccc(C(F)(F)F)cc4)CC3)N=CN21 (stereo unspecified)	688
CC(C)CCC(=O)N1CCC2(CC1)N(C)C(=O)CS2(=O)=O	644
CCSc1nnc(-c2nn(C)c3c2CN(C(=O)Nc2ccc(OC)cc2)CC3)n1CC	809
O=C(O)c1cc2cccc([N+](=O)[O-])c2[nH]1	746
CCOc1ccc(-c2cn3ccn(-c4cc(C)c(Cl)cc4OC)c(=O)c3n2)cc1	972
CCC(CC)C(=O)N1CCC2(CC1)NCc1ccccc1-n1ccnc12	580
Cc1cccc(NC(=O)CS(=O)(=O)Cc2ccccc2)n1	707
COc1ccc(N2CC(C(=O)N3CCN(c4ccccn4)CC3)CC2=O)cc1 (stereo unspecified)	582
O=C(NCc1ccccc1)C(=O)NCC1OCCc2ccccc21 (stereo unspecified)	893
COc1ccc(CCNC(=O)CCc2nnc3c4cc(-c5ccc(C)c(C)c5)nn4ccn23)cc1OC	802
CCOc1ccccc1NC(=O)CSc1nnc(-c2cccnc2)o1	730
Cc1sc(-c2nnc(C3CCC3)o2)cc1NC(=O)Cc1ccc(F)cc1	1020
CC(C)n1cnc(S(=O)(=O)N2CCCC(C(=O)N3CCN(c4ncccn4)CC3)C2)c1 (stereo unspecified)	682
Cc1cc(C)c(C(=O)N2CCC(CC(=O)NCCCN3CCCC3)CC2)[nH]1	586
O=C(Nc1nnc(-c2ccco2)o1)c1c[nH]c2ccccc12	656

SMILES	RP-LC retention time [s]
O=C([C@@H]1C[C@H](F)CN1S(=O)(=O)c1ccc(F)cc1F)N1CCc2ccccc2C1	906
O=c1c2nc(-c3cccc(Cl)c3)cn2ccn1-c1cccc(F)c1	871
O=C(CCc1nc2ccccc2n(CC(=O)Nc2ccc3c(c2)OCCO3)c1=O)NCc1ccccc1	782
COc1cccc(-c2noc(CCn3nc(-c4cccc(Cl)c4)ccc3=O)n2)c1OC	947
COC(=O)C1=CN(c2ccc(Br)cc2)c2ccccc2S1(=O)=O	908
Cn1cc(CC(=O)NCc2ccccc2Cl)c2cccnc21	706
O=C(Cn1c(=O)c2cccn2c2ccc(F)cc21)N1CCC(N2CCCCC2)CC1	606
CSc1ccccc1CN1CCC(CNC(=O)C2(c3ccc(F)cc3)CC2)CC1	596
COc1ccc(-c2nc3cc(C)ccn3c2NC(=O)c2ccc(Cl)cc2Cl)cc1	753
CCCNC(=O)CC1Sc2ncccc2N(CC)C1=O (stereo unspecified)	642
CCC(=O)N1CCc2sc(C(=O)N3CCN(c4ccccc4)CC3)cc2C1	794
C=CCNC(=O)c1cnn(-c2ccc(-c3nc(C(C)C)no3)cn2)c1C	903
CCCNC(=O)C1CCCN(c2ccc(SCC(=O)Nc3ccc(F)c(F)c3)nn2)C1 (stereo unspecified)	662
COc1ccc(CCNCc2ccc3c(c2)n(C)c(=O)n3C)cc1OC	587
Cc1oc(-c2[nH]ncc2C(=O)N2CCCC2)cc1S(=O)(=O)N1CCC(C)CC1	746
O=S(=O)(c1cccs1)N1CCCCC1c1nncn1CC1CC1 (stereo unspecified)	752
O=C(CS(=O)(=O)Cc1ccccc1)Nc1nc(-c2ccccc2)cs1	956
COCCN1CCC(N2CCN(C(=O)C3(c4ccccc4)CC3)CC2)C1=O (stereo unspecified)	542
CN1C(=O)C2(c3ccccc31)C(C(=O)Nc1c(F)c(F)c(F)c(F)c1F)CC1CCCN12 (stereo unspecified)	653
Cc1ccccc1-c1noc(Cn2c(=O)n(Cc3ccc4c(c3)OCO4)c(=O)c3sccc32)n1	1110
CCCNC(=O)C1CCCN(c2ccc(SCC(=O)Nc3ccccc3C(=O)OC)nn2)C1 (stereo unspecified)	705
COc1cccc(S(=O)(=O)N2CCC(CN3CCCCCC3)CC2)c1	642
